In brackets after ≈: the same amount, converted by molar mass. Read-outs that look alike come from different tables or passages of the source.
Tests used:
[1] = tested on: P. falciparum CQ-sensitive (3D7 strain); assay: anti-HRPII test, P. falciparum blood parasites, CQ-sensitive 3D7 strain; format: cell-based; conditions: Plasmodium falciparum
Source text: (§1) A CQ-resistant and mefloquine-sensitive P. falciparum, clone W2 [27] and a CQ-sensitive strain 3D7, were cultivated as described, in human erythrocytes (A^+), in complete medium (RPMI 1640 supplemented with 10% human sera blood group A^+) and tests followed a protocol slightly modified as follows. Human erythrocytes (A^+) and serum blood group A^+ were kindly donated by Center of Hemotherapy and Hemathology of Minas Gerais (HEMOMINAS - http://www.hemominas.mg.gov.br), under the mutual cooperation term number 18/09.
(§2) The ring-stage parasites sorbitol-synchronized were adjusted for parasitemia and hematocrit, according to the specifications for the test, then distributed in 96-well microtiter plates (Corning, Santa Clara, CA, EUA), previously prepared and containing the diluted compounds in dimethyl sulfoxide (DMSO) (0.02%) aqueous stock solution, in triplicates for each dose. CQ, the standard antimalarial, was tested in parallel each time. The drug activity was determined in relation to parasite cultures in complete medium and no drugs, as described. Parasite growth was measured through the anti-HRPII test in cultures adjusted to 1.5% hematocrit and 0.05% parasitemia, with monoclonal antibodies (MPFM-55A and MPFG-55P) commercially acquired (ICLLAB®, USA) and the TMB chromogen (3,3′,5,5′-Tetramethylbenzidine) from KPL (Gaithersburg, MD, EUA). The reaction was stopped with […] of 1 M sulfuric acid, absorbance read at 450 nm in a spectrophotometer (SpectraMax340PC384, Molecular Devices). Sigmoid dose-response curves were generated with curve-fitting software (Microcal Origin Software 5.0, Inc.), used to determine the 50% inhibitory concentration of the parasite growth (IC50), and activity calculated by comparing growth in drug-exposed cultures and the drug-free control cultures.

[2] = tested on: P. falciparum CQ-resistant (W2 clone); assay: anti-HRPII test, P. falciparum blood parasites, CQ-resistant W2 clone; format: cell-based; conditions: Plasmodium falciparum
Source text: as §1, §2

[3] = tested on: P. berghei CQ-sensitive (NK65); assay: Antimalarial suppressive test against P. berghei in mice; format: in vivo, P. berghei in Swiss mice; conditions: for % Reduction of parasitemia, 5th day, Exp.1 / Mean Parasitemia ± SD, 5th day, Exp.1 / % Reduction of parasitemia, 7th day, Exp.1 / Mean Parasitemia ± SD, 7th day, Exp.1 / % Reduction of parasitemia, 5th day, Exp.2 / Mean Parasitemia ± SD, 5th day, Exp.2 / % Reduction of parasitemia, 7th day, Exp.2 / Mean Parasitemia ± SD, 7th day, Exp.2: oral, 3 days; for % Reduction of parasitemia, 5th day, Exp.1 / Mean Parasitemia ± SD, 5th day, Exp.1 / % Reduction of parasitemia, 7th day, Exp.1 / Mean Parasitemia ± SD, 7th day, Exp.1: chloroquine 5 mg/kg, LQB223 100 mg/kg; for % Reduction of parasitemia, 5th day, Exp.1 / % Reduction of parasitemia, 5th day, Exp.2: day 5; for % Reduction of parasitemia, 5th day, Exp.1 / % Reduction of parasitemia, 7th day, Exp.1 / % Reduction of parasitemia, 5th day, Exp.2 / % Reduction of parasitemia, 7th day, Exp.2: versus non-treated mice; for Mean Parasitemia ± SD, 5th day, Exp.1 / Mean Parasitemia ± SD, 5th day, Exp.2: day 5 of infection; for % Reduction of parasitemia, 7th day, Exp.1 / % Reduction of parasitemia, 7th day, Exp.2: day 7; for Mean Parasitemia ± SD, 7th day, Exp.1 / Mean Parasitemia ± SD, 7th day, Exp.2: day 7 of infection; for % Reduction of parasitemia, 5th day, Exp.2 / Mean Parasitemia ± SD, 5th day, Exp.2 / % Reduction of parasitemia, 7th day, Exp.2 / Mean Parasitemia ± SD, 7th day, Exp.2: chloroquine 15 mg/kg, LQB223 50 mg/kg
Method: The antimalarial suppressive test in mice, as previously described, was slightly modified. Briefly, Swiss outbred adult female mice, 20±2 g weight, were inoculated with P. berghei CQ-sensitive (NK65) by intraperitoneal route, 1×10^5 freshly infected red blood cells (iRBC) per animal. Two to 24 h later, the mice were randomly distributed to be submitted to drug treatment by oral route, during three consecutive days, once a day; two control groups were used, one non treated and another treated with CQ (either 5 or 15 mg/kg).
The molecule LQB223, freshly diluted with 3% DMSO in water immediately before treatment, was given by gavage, in doses of 100 and 50 mg/kg in 200 µL volume per animal. Blood smears were prepared at days fifth and seventh after parasite inoculation, methanol-fixed, stained with Giemsa, and examined microscopically for parasitemia determination. […] Molecules reducing parasitemia by 30% or more were considered active.

[4] = tested on: normal kidney glomerular cells from green monkey (BGM); assay: Cytotoxicity test (MTT) against BGM cells; format: cell-based; conditions: for MDL50 (µg/mL) Mean ± SD: 24 h
Method: The cytotoxicity tests were performed against normal kidney glomerular cells from green monkey (BGM) as follows. The cells were cultured under a 5% CO2 atmosphere, at 37°C, in 75 cm^2 sterile flasks in RPMI 1640 medium supplemented with 10% heat-inactivated fetal calf serum, and 40 mg/L gentamicin. When confluent, the cell monolayer was washed with culture medium, trypsinized, distributed in flat-bottomed 96-well plates (5×10^3 cells/well), and incubated for 18 h at 37°C for cell adherence. The compounds (20 µL) were added to the cell plates, at various concentrations (1000 to1 µg/mL), incubated for 24 h, then received a solution of MTT [3-(4,5-dimethylthiazol-2-yl)-2,5-diphenyltetrazolium bromide] (5 mg/mL; 20 µL/well), followed by another 3 h incubation, to evaluate mitochondrial viability. The supernatants were removed, DMSO added to each well (100 µL), carefully mixed to solubilize the formazan crystals. The optical density was determined at 570 and 630 nm (background) (SpectraMax340PC384, Molecular Devices). Cell viability was expressed as the percentage of the control absorbance in the untreated cells after subtracting the appropriate background. The minimum lethal dose for 50% of the cells (MLD50) was determined and the selectivity index (SI) calculated as the ratio between cytotoxicity and activity.

[5] = tested on: P. falciparum CQ-resistant (W2 clone); conditions: ref [9], [10]; cited from earlier work
[6] = tested on: P. falciparum CQ-sensitive (3D7 strain); conditions: ref [9], [10]; cited from earlier work
[7] = CQ-sensitive 3D7, anti-HRPII test, three experiments, ≤10 active, 11–20 partially active, >20 inactive, read-out: IC50 (µg/mL) Mean ± SD, 3D7
[8] = W2, CQ-resistant P. falciparum, single curve printed in the picture, read-out: IC50 from dose response curve (Figure 3)
[9] = CQ-resistant W2, anti-HRPII test, three experiments, ≤10 active, 11–20 partially active, >20 inactive, read-out: IC50 (µg/mL) Mean ± SD, W2
[10] = BGM monkey kidney cells, MTT, minimal lethal dose for 50% of cells

Cc1ccc(S(=O)(=O)N2c3ccccc3[C@H]3CCc4ccccc4[C@H]32)cc1 (relative stereo) [LQB223]
IC50 [1, 7]: 7.8 ± 3 µg/mL (≈ 20.8 µM) | IC50 [2, 8]: 12.4 µg/mL (≈ 33 µM) | IC50 [2, 9]: 10.2 ± 1.2 µg/mL (≈ 27.2 µM) | % Reduction of parasitemia, 5th day, Exp.1 [3]: 67% | Mean Parasitemia ± SD, 5th day, Exp.1 [3]: 0.15±0.2 | % Reduction of parasitemia, 7th day, Exp.1 [3]: 28% | Mean Parasitemia ± SD, 7th day, Exp.1 [3]: 11±3 | % Reduction of parasitemia, 5th day, Exp.2 [3]: 30% | Mean Parasitemia ± SD, 5th day, Exp.2 [3]: 1.2±0.5 | % Reduction of parasitemia, 7th day, Exp.2 [3]: 13% | Mean Parasitemia ± SD, 7th day, Exp.2 [3]: 18.3±1.5 | antimalarial activity in vivo ([3]; mice infected with P. berghei): active in vivo | MDL50 (µg/mL) Mean ± SD [4, 10]: ≥1000 µg/mL

COC(=O)c1ccc2c(c1)[C@H]1COC3=C(C(=O)c4ccccc4C3=O)[C@H]1O2 (relative stereo) [LQB221]
IC50 [1, 7]: 0.25 ± 0.1 µg/mL (≈ 0.69 µM) | IC50 [2, 9]: 0.63 ± 0.8 µg/mL (≈ 1.74 µM) | toxicity to BGM cells ([4]; BGM cells): toxic to BGM cells | MDL50 (µg/mL) Mean ± SD [4, 10]: 5.1 µg/mL

Cc1ccc(S(=O)(=O)N2c3ccccc3[C@H]3COC4=C(C(=O)c5ccccc5C4=O)[C@H]32)cc1 (relative stereo) [LQB192]
IC50 [1, 7]: 3.8 ± 1 µg/mL (≈ 8.31 µM) | IC50 [2, 9]: 2.9 ± 2.5 µg/mL (≈ 6.34 µM) | toxicity to BGM cells ([4]; BGM cells): toxic to BGM cells | MDL50 (µg/mL) Mean ± SD [4, 10]: 68.7 ± 8.4 µg/mL

O=C1C2=C(C(=O)c3ccccc31)[C@H]1Oc3ccccc3[C@H]1CO2 (relative stereo) [LQB118]
IC50 [1, 7]: 0.16 ± 0.03 µg/mL (≈ 0.526 µM) | IC50 [2, 9]: 0.17 ± 0.1 µg/mL (≈ 0.559 µM) | toxicity to BGM cells [4]: toxic to BGM cells | MDL50 (µg/mL) Mean ± SD ([4]; green monkey): ≤3.9 µg/mL

COc1ccc2c(c1)O[C@@H]1C3=C(OC[C@H]21)C(=O)c1ccccc1C3=O (relative stereo) [LQB216]
IC50 [1, 7]: 0.21 ± 0.09 µg/mL (≈ 0.628 µM) | IC50 [2, 8]: 0.23 µg/mL (≈ 0.688 µM) | IC50 [2, 9]: 0.4 ± 0.2 µg/mL (≈ 1.2 µM) | MDL50 (µg/mL) Mean ± SD [4, 10]: 24.2 ± 3 µg/mL

CCN(CC)CCCC(C)Nc1ccnc2cc(Cl)ccc12 (stereo not drawn) [Chloroquine, chloroquine, reference compound]
IC50 ([1]; 3D7, read-out: IC50 (µg/mL) Mean ± SD, 3D7): 0.03 µg/mL (≈ 0.0938 µM) | IC50 ([2]; W2, read-out: IC50 (µg/mL) Mean ± SD, W2): 0.138 µg/mL (≈ 0.431 µM) | IC50, W2 clone, previous work [5]: 0.07 µg/mL (≈ 0.219 µM) | % Reduction of parasitemia, 5th day, Exp.1 [3]: 100% | Mean Parasitemia ± SD, 5th day, Exp.1 [3]: 0 | % Reduction of parasitemia, 7th day, Exp.1 [3]: 52% | Mean Parasitemia ± SD, 7th day, Exp.1 [3]: 7.3±3 | % Reduction of parasitemia, 5th day, Exp.2 [3]: 100% | Mean Parasitemia ± SD, 5th day, Exp.2 [3]: 0±0.0 | % Reduction of parasitemia, 7th day, Exp.2 [3]: 100% | Mean Parasitemia ± SD, 7th day, Exp.2 [3]: 0±0.0 | IC50, 3D7 strain, previous work [6]: 0.0035 µg/mL (≈ 0.0109 µM)

COc1cc(C=O)cc2c1O[C@@H]1C3=C(OC[C@H]21)C(=O)c1ccccc1C3=O (relative stereo) [LQB222]
IC50 [1, 7]: 3.5 ± 0.4 µg/mL (≈ 9.66 µM) | IC50 [2, 9]: 1.8 ± 1.6 µg/mL (≈ 4.97 µM) | toxicity to BGM cells ([4]; BGM cells): toxic to BGM cells | MDL50 (µg/mL) Mean ± SD [4, 10]: ≤3.9 µg/mL

Reference: publication PMC3961230, “Theoretical and Experimental Studies of New Modified Isoflavonoids as Potential Inhibitors of Topoisomerase I from Plasmodium falciparum” (PLoS ONE, 2014)
